According to patent EP0123700A1, “Substituted picolinic acids, processes for their preparation, their use, and pharmaceutical preparations containing them” (Byk Gulden Lomberg Chemische Fabrik GmbH, priority 1983, dated 1984):
“And” between values parts separate entries of the source, which are not always exact repeats. Equal entries are not always repeated.

What was measured:
[1] = system: genetisch hypertonen Ratten; experiment: Antihypertensive effect: systolic blood pressure (tail cuff) in conscious genetically hypertensive rats, oral dosing once daily on four consecutive days; assay type: in vivo, Ratten (Stamm SHR/N/Ibm/Bm); conditions: for Th.W. (Therapeutische Wirksamkeit): mean of quotient over the doses of Table I
Procedure: Zur Bestimmung der äntihypertensiven Wirkung werden die unten aufgeführten Verbindungen in den angegebenen Dosen an vier aufeinander folgenden Tagen an je 6 Ratten (Stamm SHR/N/Ibm/Bm, ♂, 250-350 g) mit genetisch bedingtem Hochdruck (RR > 180 mmHg) täglich einmal mittels Schlundsonde verabfolgt. Die Messung des Blutdrucks erfolgt jeweils 2, 6 und gegebenenfalls 24 Stunden nach Substanzgabe.
Die Blutdruckmessung wird in einer Wärmekammer bei 36°C vorgenommen, um eine bessere Durchblutung der Schwanzarterie zu erreichen. Hierzu werden die Tiere in perforierte Lochblechkäfige verbracht und 20 - 40 Min. nach Beginn der Aufwärmung gemessen. Zur Messung des systolischen arteriellen Drucks wird eine ringförmige Manschette mit aufblasbarer Gummimembran zur Unterbindung der Durchblutung und ein ringförmiger Piezökristallaufnehmer zur Erfassung der Pulswellen auf den Schwanz aufgeschoben. Nach erfolgter Unterbindung des Blutstroms in der Schwanzarterie wird der Manschettendruck kontinuierlich reduziert. […] Pulssignale und Druckverlauf werden zur Auswertung graphisch aufgezeichnet.
Zur Gewöhnung an den Meßvorgang werden die Tiere vor Substanzprüfung 14 Tage traniniert. In der zweiten Trainingswoche werden Blutdruck-Vorwerte erhoben. Tiergruppen, die Substanz erhälten, werden gegen eine Kontrollgruppe geprüft.

[2] = Oral toxicity (LD50) in mice, 14 days observation; assay type: in vivo; conditions: mouse, in vivo, N=5/dose
Text: Die Toxizitätsuntersuchungen werden an weiblichen NMRI-Mäusen (Körpergewicht 22 - 26 g) durchgeführt. Die Tiere (5 Tiere pro Dosis) erhalten Futter und Wasser ad libitum. Verschiedene Dosen der Substanzen werden oral verabreicht. Die Beobachtungsdauer beträgt 14 Tage. Die LD50, d.h. die Dosis bei der 50% der Tiere sterben, wird aus der Dosiswirkungskurve graphisch ermittelt.

[3] = day 1 (2h, 6h and 24h Th.W. averaged), normalised to Th.W. Fusarsäure = 1
[4] = day 2, normalised to Th.W. Fusarsäure = 1
[5] = day 3 (6h and 24h Th.W. averaged), normalised to Th.W. Fusarsäure = 1
[6] = day 4 (2h and 6h Th.W. averaged), normalised to Th.W. Fusarsäure = 1

## CCN(CC)CCCOC(=O)c1ccc(-c2ccccc2)cn1 [Beispiel 4]
[1]; [3]
  Th.I. Fusarsäure = 1: 10,9
[1]; [4]
  Th.I. Fusarsäure = 1: 7,2
[1]; [5]
  Th.I. Fusarsäure = 1: 6,5
[1]; [6]
  Th.I. Fusarsäure = 1: 3,3

## CCN(CC)CCCNC(=O)c1ccc(-c2ccc(Cl)cc2)cn1 [Beispiel 9]
[2]
  LD50 at 336 h: > 1000 mg/kg

## CCCCc1ccc(C(=O)OCCCN(C)C)nc1 [lfd. Nr. 3, 5-n-Butylpyridin-2-carbonsäure-(3-dimethylaminopropyl)-ester]
[1]; 20,0 mg/kg p.o., day 1, 2h, listed as 2
  BP (%-Änderungen): -5% and -8%
[1]; 20,0 mg/kg p.o., day 1, 6h, listed as 2
  BP (%-Änderungen): -10% and -13%
[1]; 20,0 mg/kg p.o., day 1, 24h
  BP (%-Änderungen): 0%
[1]; 20,0 mg/kg p.o., day 2, 6h, listed as 2
  BP (%-Änderungen): -6% and -9%
[1]; 20,0 mg/kg p.o., day 3, 6h, listed as 2
  BP (%-Änderungen): -4% and -7%
[1]; 20,0 mg/kg p.o., day 3, 24h
  BP (%-Änderungen): -2%
[1]; 20,0 mg/kg p.o., day 4, 2h, listed as 2
  BP (%-Änderungen): -5% and -8%
[1]; 20,0 mg/kg p.o., day 4, 6h, listed as 2
  BP (%-Änderungen): -7% and -10%
[1]; [3]
  Th.I. Fusarsäure = 1: 4,3
[1]; day 1, 2h
  Th.W. (Therapeutische Wirksamkeit): -5,6 %-Änderung BP / µmol/kg x 100
[1]; day 1, 6h
  Th.W. (Therapeutische Wirksamkeit): -10,3 %-Änderung BP / µmol/kg x 100
[1]; day 1, 24h
  Th.W. (Therapeutische Wirksamkeit): 1,3 %-Änderung BP / µmol/kg x 100
[1]; day 2, 6h
  Th.W. (Therapeutische Wirksamkeit): -6,7 %-Änderung BP / µmol/kg x 100
[1]; [4]
  Th.I. Fusarsäure = 1: 5,2
[1]; [5]
  Th.I. Fusarsäure = 1: 2,5
[1]; day 3, 6h
  Th.W. (Therapeutische Wirksamkeit): -4,5 %-Änderung BP / µmol/kg x 100
[1]; day 3, 24h
  Th.W. (Therapeutische Wirksamkeit): 0,4 %-Änderung BP / µmol/kg x 100
[1]; [6]
  Th.I. Fusarsäure = 1: 1,1
[1]; day 4, 2h
  Th.W. (Therapeutische Wirksamkeit): -5,6 %-Änderung BP / µmol/kg x 100
[1]; day 4, 6h
  Th.W. (Therapeutische Wirksamkeit): -7,6 %-Änderung BP / µmol/kg x 100

## CCN(CC)CCCOC(=O)c1ccc(-c2ccccc2)cn1 [lfd. Nr. 4, 5-Phenylpyridin-2-carbonsäure-(3-diethylaminopropyl)-ester]
[1]; 10,0 mg/kg p.o., day 1, 2h
  BP (%-Änderungen): -4%
[1]; 10,0 mg/kg p.o., day 1, 6h
  BP (%-Änderungen): -10%
[1]; 10,0 mg/kg p.o., day 1, 24h
  BP (%-Änderungen): -6%
[1]; 10,0 mg/kg p.o., day 2, 6h
  BP (%-Änderungen): -10%
[1]; 10,0 mg/kg p.o., day 3, 6h
  BP (%-Änderungen): -13%
[1]; 10,0 mg/kg p.o., day 3, 24h
  BP (%-Änderungen): -12%
[1]; 10,0 mg/kg p.o., day 4, 2h
  BP (%-Änderungen): -13%
[1]; 10,0 mg/kg p.o., day 4, 6h
  BP (%-Änderungen): -12%
[1]; 20,0 mg/kg p.o., day 1, 2h
  BP (%-Änderungen): -3%
[1]; 20,0 mg/kg p.o., day 1, 6h
  BP (%-Änderungen): -2%
[1]; 20,0 mg/kg p.o., day 1, 24h
  BP (%-Änderungen): -6%
[1]; 20,0 mg/kg p.o., day 2, 6h
  BP (%-Änderungen): -8%
[1]; 20,0 mg/kg p.o., day 3, 6h
  BP (%-Änderungen): -14%
[1]; 20,0 mg/kg p.o., day 3, 24h
  BP (%-Änderungen): -5%
[1]; 20,0 mg/kg p.o., day 4, 2h
  BP (%-Änderungen): -6%
[1]; 20,0 mg/kg p.o., day 4, 6h
  BP (%-Änderungen): -9%
[1]; day 1 (2h, 6h and 24h Th.W. averaged), normalised to Th.W. Fusarsäure = 1, listed as 5
  Th.I. Fusarsäure = 1: 16,2
[1]; day 1, 2h
  Th.W. (Therapeutische Wirksamkeit): -11,8 %-Änderung BP / µmol/kg x 100
[1]; day 1, 6h
  Th.W. (Therapeutische Wirksamkeit): -23,7 %-Änderung BP / µmol/kg x 100
[1]; day 1, 24h
  Th.W. (Therapeutische Wirksamkeit): -19,4 %-Änderung BP / µmol/kg x 100
[1]; day 2, 6h
  Th.W. (Therapeutische Wirksamkeit): -30,2 %-Änderung BP / µmol/kg x 100
[1]; day 2, normalised to Th.W. Fusarsäure = 1, listed as 5
  Th.I. Fusarsäure = 1: 23,2
[1]; day 3 (6h and 24h Th.W. averaged), normalised to Th.W. Fusarsäure = 1, listed as 5
  Th.I. Fusarsäure = 1: 22,5
[1]; day 3, 6h
  Th.W. (Therapeutische Wirksamkeit): -43,1 %-Änderung BP / µmol/kg x 100
[1]; day 3, 24h
  Th.W. (Therapeutische Wirksamkeit): -31,2 %-Änderung BP / µmol/kg x 100
[1]; day 4 (2h and 6h Th.W. averaged), normalised to Th.W. Fusarsäure = 1, listed as 5
  Th.I. Fusarsäure = 1: 6,0
[1]; day 4, 2h
  Th.W. (Therapeutische Wirksamkeit): -34,5 %-Änderung BP / µmol/kg x 100
[1]; day 4, 6h
  Th.W. (Therapeutische Wirksamkeit): -35,5 %-Änderung BP / µmol/kg x 100

## CN(C)CCCNC(=O)c1ccc(-c2ccccc2)cn1 [lfd. Nr. 6, 5-Phenylpyridin-2-carbonsäure-(3-dimethylaminopropyl)-amid]
[1]; 6,4 mg/kg p.o., day 1, 2h, listed as 11
  BP (%-Änderungen): +2%
[1]; 6,4 mg/kg p.o., day 1, 6h, listed as 11
  BP (%-Änderungen): -1%
[1]; 6,4 mg/kg p.o., day 1, 24h, listed as 11
  BP (%-Änderungen): +10%
[1]; 6,4 mg/kg p.o., day 2, 6h, listed as 11
  BP (%-Änderungen): -14%
[1]; 6,4 mg/kg p.o., day 3, 6h, listed as 11
  BP (%-Änderungen): -10%
[1]; 6,4 mg/kg p.o., day 3, 24h, listed as 11
  BP (%-Änderungen): +4%
[1]; 6,4 mg/kg p.o., day 4, 6h, listed as 11
  BP (%-Änderungen): -10%
[1]; 25,6 mg/kg p.o., day 1, 2h, listed as 11
  BP (%-Änderungen): -7%
[1]; 25,6 mg/kg p.o., day 1, 6h, listed as 11
  BP (%-Änderungen): -9%
[1]; 25,6 mg/kg p.o., day 1, 24h
  BP (%-Änderungen): +4%
[1]; 25,6 mg/kg p.o., day 2, 6h, listed as 11
  BP (%-Änderungen): +3%
[1]; 25,6 mg/kg p.o., day 3, 6h, listed as 11
  BP (%-Änderungen): -15%
[1]; 25,6 mg/kg p.o., day 3, 24h, listed as 11
  BP (%-Änderungen): -10%
[1]; day 1 (2h, 6h and 24h Th.W. averaged), normalised to Th.W. Fusarsäure = 1, listed as 11
  Th.I. Fusarsäure = 1: -25,7
[1]; day 1, 2h
  Th.W. (Therapeutische Wirksamkeit): 0,9 %-Änderung BP / µmol/kg x 100
[1]; day 1, 6h
  Th.W. (Therapeutische Wirksamkeit): -11,8 %-Änderung BP / µmol/kg x 100
[1]; day 1, 24h
  Th.W. (Therapeutische Wirksamkeit): 39,9 %-Änderung BP / µmol/kg x 100
[1]; day 2, 6h
  Th.W. (Therapeutische Wirksamkeit): -48,0 %-Änderung BP / µmol/kg x 100
[1]; day 2, normalised to Th.W. Fusarsäure = 1, listed as 11
  Th.I. Fusarsäure = 1: 36,9
[1]; day 3 (6h and 24h Th.W. averaged), normalised to Th.W. Fusarsäure = 1, listed as 11
  Th.I. Fusarsäure = 1: 8,0
[1]; day 3, 6h
  Th.W. (Therapeutische Wirksamkeit): -49,9 %-Änderung BP / µmol/kg x 100
[1]; day 3, 24h
  Th.W. (Therapeutische Wirksamkeit): 23,6 %-Änderung BP / µmol/kg x 100
[1]; day 4 (2h and 6h Th.W. averaged), normalised to Th.W. Fusarsäure = 1, listed as 11
  Th.I. Fusarsäure = 1: 5,2
[1]; day 4, 6h
  Th.W. (Therapeutische Wirksamkeit): -36,2 %-Änderung BP / µmol/kg x 100
